Measured values taken from patent publication US20230382915A1, “GCN2 AND PERK KINASE INHIBITORS AND METHODS OF USE THEREOF” (Deciphera Pharmaceuticals, LLC, priority 2021, published 2023).

Key:
[1] = test system: ATF4 levels in CCRF-CEM leukemia xenograft; test: CCRF-CEM xenograft PK/PD model; assay type: in vivo, mice; conditions: Mus musculus, po, in combination with ASNase, 2, 6, 10 h post dose, read-out: inhibition of ATF4 levels compared to vehicle control
Procedure: The CCRF-CEM xenograft model was performed in compliance with all the laws, regulations and guidelines of the National Institutes of Health (NIH) and with the approval of the Animal Care and Use Committee of Labcorp (Ann Arbor, MI), an AAALAC accredited facility. Food and water was provided ad libitum. […] Female Envigo C.B-17 SCID (6-7 weeks old) were inoculated subcutaneously just below the right high axilla with ten million cells in Dulbecco's Phosphate Buffered Saline, using a 27-gauge needle and syringe. When tumor burdens reached 200 mm 3 on average on day 22, mice were randomly assigned into groups such that the mean tumor burden for all groups was within 10% of the overall mean tumor burden for the study population. Groups were treated on days 23-24 as follows: on day 23 vehicle control (dosed orally and IP to mimic combination groups) (n=9); ASNase (Abcam, Cambridge, UK) dosed IP at 1000 U/kg/day (n=9). […] Protein concentrations were determined using BCA protein assay kit (Thermo Fisher Scientific, Waltham, MA). […] Samples were resolved using SDS-PAGE then analyzed using Western blot to quantify phospho-GCN2 (Thr899) (Abcam, Cambridge, UK), total GCN2, ATF4 and beta-Actin (Cell Signaling Technology, Danvers, MA). […] Data is analyzed using GraphPad Prism software (GraphPad, San Diego, CA) to calculate % inhibition.

[2] = test system: Follicular lymphoma cells; test: Cell proliferation, combination with standard of care, follicular lymphoma; assay type: cell-based; conditions: with 41 nM ibrutinib, 96 h, FIG. 6D; read-out: inhibition of cell proliferation IC50, combination treatment
Procedure: H929, RPMI8226, GA-10 and DoHH-2 cells (catalog #CRL-9068) were obtained from the American Type Culture Collection (ATTC, Manassas, VA). H929 Cells were maintained in RPMI-1640 medium supplemented with 20% heat-inactivated fetal bovine serum (catalog #A3840002, ThermoFisher Scientific, Waltham, MA), 1% Penicillin/Streptomycin/L-Glutamine (catalog #10378016, ThermoFisher Scientific, Waltham, MA), and 0.05 mM 2-mercaptoethanol (catalog #21985-023, ThermoFisher Scientific, Waltham, MA). […]
For cell proliferation assay appropriate number of cells (Forty thousand cells for H929. Twenty thousand cells for RPMI8226 and GA-10. Eight thousand cells for DoHH-2) were seeded per well in 200 μL in respective medium were dispensed into a 96-well black clear bottom plate. […] Plates were read on a Synergy2 or equivalent reader (Biotek, Winooski VT) using an excitation of 540 nm and an emission of 600 nm. At the end of the incubation of DoHH-2, cell viability was determined using CellTiter-Glo® assay (Promega, Madison, WI). Luminescence was measured using EnVision MultiLabel Reader (PerkinElmer, Waltham, MA). Data was analyzed using GraphPad Prism software (GraphPad, San Diego, CA) to calculate IC50 values.

Work on `Cn1cc(-c2cccc(NS(=O)(=O)c3cc(Cl)cc(CO)c3Cl)c2F)c2c(N)ncnc21` [Example 2, N-(3-(4-amino-7-methyl-7H-pyrrolo[2,3-d]pyrimidin-5-yl)-2-fluorophenyl)-2,5-dichloro-3-(hydroxymethyl)benzenesulfonamide] yielded an inhibition at 25 mg/kg ([1]; 25 mg/kg orally) of 57 to 93%, an inhibition at 50 mg/kg ([1]; 50 mg/kg orally) of 87 to 91% and an IC50 [2] of 4 nM.
